Assay results taken from the supplement of paper PMC10307832.

What was measured:
Test in all cases: relative viability (nuclei count vs DMSO), 5 days (fraction); higher = more cells survive
Wnt-C59 = compound: CC1=NC=CC(=C1)C2=CC=C(C=C2)CC(=O)NC3=CC=C(C=C3)C4=CN=CC=C4 [Wnt-C59]
Procedure, shortened: (§1)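 Five library-drug doses, separated by factors of √10, were pinned into 1536-well plates holding lung cancer cell lines after an overnight stay at 37 °C. Cells were fixed, permeabilised and Hoechst-stained in one step after 5 days without medium change, then imaged at 4×. Viability compares treated-well with vehicle-well nuclei, counted in MetaXpress, as a median across plates. Passing plates had control CV below 25% and at least one doubling.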

Lapatinib = compound: CS(=O)(=O)CCNCc1ccc(-c2ccc3ncnc(Nc4ccc(OCc5cccc(F)c5)c(Cl)c4)c3c2)o1 [Lapatinib]
Procedure, shortened: as §1

Wnt-C59 + Luminespib = compound: CC1=NC=CC(=C1)C2=CC=C(C=C2)CC(=O)NC3=CC=C(C=C3)C4=CN=CC=C4 [Wnt-C59] + CCNC(=O)c1noc(-c2cc(C(C)C)c(O)cc2O)c1-c1ccc(CN2CCOCC2)cc1 [Luminespib] (partner 0.01 µM)
Procedure, shortened: (§2)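 For relative viability, nuclei counts in treated wells were divided by those in vehicle wells. Lung cancer cell lines had been pin-tool dosed in 1536-well plates the day after seeding and cultured for 5 days, then fixed and stained in one step (final 0.05% Triton X-100, 1% formaldehyde, 1 ug/ml Hoechst) and imaged at 4×. Doses were one drug alone or a fixed anchor-drug dose plus five library-drug doses (not always all listed) in √10 steps, and values are duplicate-plate medians.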

Wnt-C59 + OSI-027 = compound: CC1=NC=CC(=C1)C2=CC=C(C=C2)CC(=O)NC3=CC=C(C=C3)C4=CN=CC=C4 [Wnt-C59] + COc1cccc2cc(-c3nc([C@H]4CC[C@H](C(=O)O)CC4)n4ncnc(N)c34)[nH]c12 [OSI-027] (partner 0.5 µM)
Procedure, shortened: as §2

Row | Cell Line | relative viability (Wnt-C59; 0.001 µM) | relative viability (Wnt-C59; 0.01 µM) | relative viability (Wnt-C59; 0.03162 µM) | relative viability (Wnt-C59; 0.1 µM) | relative viability (Lapatinib; 0.02 µM) | relative viability (Lapatinib; 0.06325 µM) | relative viability (Lapatinib; 0.2 µM) | relative viability (Lapatinib; 0.6325 µM) | relative viability (Lapatinib; 2 µM) | relative viability (Lapatinib; 2 µM, anchor plate) | relative viability (Wnt-C59 + Luminespib; first compound 0.001 µM) | relative viability (Wnt-C59 + Luminespib; first compound 0.01 µM) | relative viability (Wnt-C59 + Luminespib; first compound 0.03162 µM) | relative viability (Wnt-C59 + Luminespib; first compound 0.1 µM) | relative viability (Wnt-C59 + OSI-027; first compound 0.001 µM) | relative viability (Wnt-C59 + OSI-027; first compound 0.01 µM) | relative viability (Wnt-C59 + OSI-027; first compound 0.03162 µM) | relative viability (Wnt-C59 + OSI-027; first compound 0.1 µM)
1 | NCI-H1755 | 0.994 | 0.969 | 0.999 | 0.914 | 1.01 | 0.914 | 0.936 | 0.967 | 0.981 | 1.03 | 0.549 | 0.534 | 0.407 | 0.644 | 0.8 | 0.72 | 0.644 | 0.663
2 | EMC-BAC-2 | 0.891 | 0.874 | 0.868 | 0.962 | – | 0.8 | 0.734 | 0.985 | 1.04 | 0.917 | 1.18 | 1.05 | 1.06 | 1.12 | 0.377 | 0.36 | 0.366 | 0.387
3 | NCI-H1734 | 0.986 | 0.961 | 1.01 | 0.957 | – | 0.794 | 1.01 | 1.07 | 0.943 | 1.07 | 0.233 | 0.241 | 0.196 | 0.138 | 0.622 | 0.518 | 0.596 | 0.3
4 | NCI-H727 | 1.01 | 0.854 | 0.867 | 0.931 | 0.839 | – | 1.11 | 0.778 | 0.776 | 0.796 | 0.332 | – | 0.857 | 0.526 | 0.759 | 0.581 | 0.641 | 0.541
5 | A-427 | 0.965 | 0.817 | 1.05 | 1.04 | – | 0.978 | 1 | 0.954 | 0.963 | 1.05 | 0.886 | 0.943 | 0.715 | 0.933 | 0.479 | 0.457 | 0.478 | 0.503
